From PMC7440923, “Measuring protein stability in the GroEL chaperonin cage reveals massive destabilization” (eLife, 2020) come the findings set out here.

The target in series [1] is T1, DHFRMp fused to eGFP (chimera), free in bulk solution (Moritella profunda, UniProt Q70YQ6).
T1 construct: gene dyrA; N-terminal His7-eGFP (A206K)-linker with TEV site-DHFRMp at the C-terminus; fusion uncut; E. coli BL21; not encapsulated
Description: differential scanning fluorimetry, SYPRO Orange. To be noted: 500 µM ligand, 5 µM chimera, working buffer pH 8.0; transition of the DHFRMp part. The class given is binding.

Substrate in the series “purified protein”: Nc1nc2c(c(=O)[nH]1)N=C(CNc1ccc(C(=O)N[C@@H](CCC(=O)O)C(=O)O)cc1)CN2
Description: purified protein. The class given is biochemical, Moritella profunda. To be noted: 350 µM NADPH, 23 °C, working buffer (20 mM Hepes pH 8.0, 100 mM KCl, 50 mM MgCl2, 50 mM Na2SO4, 10 mM NaF, 1 mM BeSO4, 1 mM DTT), free chimera in bulk solution.

A further series addresses T2, GroEL (Escherichia coli, UniProt P0A6F5 1-548).
T2 construct: GroEL chaperonin of the Escherichia coli GroE system; used as 'GroEL oligomer'; Expression and purification of GroEL are not described; also called GroEL oligomer
Description: SEC; freshly assembled football complexes: acid-denatured eGFP added to GroEL and GroES oligomers in folding buffer, assembly started with Na2SO4, NaF, BeSO4 and ATP; gel-filtration in working buffer (20 mM Hepes pH 8.0, 100 mM KCl, 50 mM MgCl2, 50 mM Na2SO4, 10 mM NaF, 1 mM BeSO4, 1 mM DTT); A280 and A485, fractions by SDS-PAGE. The following applies: both partners purified. Background: In gel filtration, larger molecules generally elute earlier.

T2 sequence (P0A6F5 whole entry): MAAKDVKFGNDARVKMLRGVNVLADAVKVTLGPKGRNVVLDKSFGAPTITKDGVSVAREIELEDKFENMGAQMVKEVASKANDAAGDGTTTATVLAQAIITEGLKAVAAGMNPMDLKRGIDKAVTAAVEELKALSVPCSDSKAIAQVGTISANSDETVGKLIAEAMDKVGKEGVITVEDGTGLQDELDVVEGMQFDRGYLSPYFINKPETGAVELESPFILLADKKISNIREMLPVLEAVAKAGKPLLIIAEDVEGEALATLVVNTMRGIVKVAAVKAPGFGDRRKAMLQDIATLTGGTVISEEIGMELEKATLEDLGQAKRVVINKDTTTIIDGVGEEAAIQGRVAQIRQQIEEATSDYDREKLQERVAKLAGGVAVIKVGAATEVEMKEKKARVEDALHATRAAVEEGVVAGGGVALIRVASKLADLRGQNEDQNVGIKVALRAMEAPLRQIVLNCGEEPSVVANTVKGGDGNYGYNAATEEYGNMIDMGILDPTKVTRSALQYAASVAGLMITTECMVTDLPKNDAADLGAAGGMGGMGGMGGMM

On to `NC(=O)C1=CN([C@@H]2O[C@H](COP(=O)(O)OP(=O)(O)OC[C@H]3O[C@@H](n4cnc5c(N)ncnc54)[C@H](OP(=O)(O)O)[C@@H]3O)[C@@H](O)[C@H]2O)C=CC1` [NADPH], for which the “increase in melting temperature (dTm)” value in series [1] was ~ 8 °C.

Take `Nc1nc2c(c(=O)[nH]1)N=C(CNc1ccc(C(=O)N[C@@H](CCC(=O)O)C(=O)O)cc1)CN2` [dihydrofolate]: the “increase in melting temperature (dTm)” value in series [1] was ~ 31 °C.

B1: DHFRMp fused to eGFP (chimera), free in bulk solution (Moritella profunda) (protein)
chain: MIVSMIAALANNRVIGLDNKMPWHLPAELQLFKRATLGKPIVMGRNTFESIGRPLPGRLNIVLSRQTDYQPEGVTVVATLEDAVVAAGDVEELMIIGGATIYNQCLAAADRLYLTHIELTTEGDTWFPDYEQYNWQEIEHESYAADDKNPHNYRFSLLERVK
notes: N-terminal His7-eGFP (A206K)-linker with TEV site-DHFRMp at the C-terminus; fusion uncut; E. coli BL21; not encapsulated
As to B1, the Km in the series “purified protein” was 33 (±2) µM.

B2: GroES (natural protein, Escherichia coli, UniProt P0A6F9 1-97, looked up)
chain: MNIRPLHDRVIVKRKEVETKSAGGIVLTGSAAAKSTRGEVLAVGNGRILENGEVKPLDVKVGDIVIFNDGYGVKSEKIDNEEVLIMSESDILAIVEA
notes: GroES, co-factor of GroEL in the Escherichia coli GroE system; used as 'GroES oligomer'; Expression and purification of GroES are not described; also called GroES oligomer
As to B2, the binding result with GroEL was “binds”.
